Assay results published in patent publication US6384028B1, “N-acylpiperidinylcarbonylaminocarboxylic acids and their use as glycoprotein IIb/IIIa antagonists and fibrinogen-blood platelets binding inhibitors” (Fujisawa Pharmaceutical Co., Ltd., priority 1995, dated 2002).
Counter-ions that a name gives are not always drawn.

Tested on: platelet aggregation induced by ADP in platelet rich plasma (PRP) prepared from human blood
Assay: Effect on platelet aggregation induced by adenosine diphosphate (ADP)
Format: cell-based
Settings: 2 min, 3×10^8 platelets/ml, drug stirred for 2 minutes at 37° C., ADP final 2.5 μM, aggregometer
Method: Test 1: Effect on Platelet Aggregation Induced by Adenosine Diphosphate (ADP)
Platelet rich plasma (PRP) which contains 3×10^8 platelets/ml was prepared from human blood. To the 225 μl of PRP, 25 μl of drug solution* was added, and then stirred for 2 minutes at 37° C. To the solution 5 μl of ADP (final 2.5 μM) was added as an aggregation inducer. Aggregation was measured by using an aggregometer (NBS HEMA-TRACER 801). Activity of inhibitor (test compound) was expressed as IC50 value i.e. dose required for […] inhibition of platelet aggregation.
Drug solution* - - - Test compound was dissolved in water.

O=C(O)C[C@@H](CCc1ccccc1)NC(=O)[C@@H]1CCCN(C(=O)/C=C/C2CCNCC2)C1 [Example 25, N-[(R)-1-[3-(4-Piperidyl)-(E)-acryloyl]-3-piperidylcarbonyl]-3(R)-phenethyl-β-alanine Hydrochloride]
IC50: 85 nM
